Values of other authors in patent US4127527A, “Novel pentadecapeptides, intermediates therefor, and compositions and methods employing said pentadecapeptides” (priority 1977, dated 1978).

Columns and labels:
[1] = system: brain opiate receptor sites; settings: natural peptide; Bradbury et al., Nature 260, 793 (1976)
rat = settings: injected directly into the brain of the rat; Belluzzi et al., Nature 260, 625 (1976)

## H-Tyr-Gly-Gly-Phe-Met-OH [methionine enkephalin]
[1]
  binding to partially purified brain opiate receptor sites: binds stereo-specifically
rat
  analgesic activity: only weak analgesic agent of short duration
